The text below walks through data of ChEMBL document CHEMBL6177994 (J Med Chem, 2025).

Active and inactive are the calls of the source. The rule behind the calls is not given here.

For orientation: IC50 means the point on the concentration scale where inhibition reaches its midpoint.

The subject of series [1] is Protein cereblon/GTPase KRas (Homo sapiens), P01116+Q96SW2 [G12D]. Put plainly: PROTAC activity at CRBN/KRAS G12D mutant in human ASPC1 cells assessed as induction of KRAS G12D mutant degradation at 50 nM measured after 24 hrs by immunoblot analysis relative to control. The class given is cell-based. Background: Immunoblotting shows a protein as a band on a membrane.

Series [2] has the same test system. The series can be described thus: PROTAC activity at CRBN/KRAS G12D mutant in human ASPC1 cells assessed as induction of KRAS G12D mutant degradation at 5 nM measured after 24 hrs by immunoblot analysis relative to control. The class given is cell-based.
For series [3] the test system is unchanged. The series can be described thus: PROTAC activity at CRBN/KRAS G12D mutant in human ASPC1 cells assessed as induction of KRAS G12D mutant degradation at 1 uM measured after 24 hrs by immunoblot analysis relative to control. The class given is cell-based.
For series [4] the test system is unchanged. Put plainly: PROTAC activity at CRBN/KRAS G12D mutant in human ASPC1 cells assessed as induction of KRAS G12D mutant degradation at 5 uM measured after 24 hrs by immunoblot analysis relative to control. The class given is cell-based.
The test system is the same in series [5]. Put plainly: PROTAC activity at CRBN/KRAS G12D mutant in human ASPC1 cells assessed as induction of KRAS G12D mutant degradation at 100 nM measured after 24 hrs by immunoblot analysis relative to control. The class given is cell-based.
For series [6] the test system is unchanged. Put plainly: PROTAC activity at CRBN/KRAS G12D mutant in human ASPC1 cells assessed as induction of KRAS G12D mutant degradation at 15 nM measured after 24 hrs by immunoblot analysis relative to control. The class given is cell-based.
Another series concerns AGS. Put plainly: Antiproliferative activity against human AGS cells harbouring KRAS G12D mutant assessed as inhibition of cell growth measured after 72 hrs by Cell titer glo method. The class given is functional, cell-based. (In general: ATP-based viability assays read luminescence as a measure of living cells.)
Series [7] can be described thus: Inhibition of Raf (unknown origin)/GTP loaded KRas G12D mutant interaction preincubated for 15 mins followed by anti-tag1-eu3 and Tag2-XL665 antibody addition and measured for 120 mins by HTRF method. Further details: species or system Homo sapiens. Background: Time-resolved FRET reads energy transfer from a long-lived donor to a nearby acceptor.
The nature of series [8]: Inhibition of ERK phosphorylation in human PK-59 cells harbouring KRAS G12D mutant measured after 24 hrs. The class given is cell-based. The note with it: PK-59, 24 h.
A short description of series [9]: Antitumor activity against human PK-59 cells xenografted in female Balb/c nude mouse model assessed as tumor growth inhibition at 1.81 mg/kg, iv QW measured after 28 days relative to control. The class given is functional. The settings on record: PK-59, 672 h, time 28 day, read-out: TGI.
Series [10] can be described thus: Antiproliferative activity against human GP2d cells harbouring KRAS G12D mutant assessed as inhibition of cell growth measured after 72 hrs by Cell titer glo method. The class given is functional, cell-based.
Series [11] can be described thus: Antiproliferative activity against human PK-59 cells harbouring KRAS G12D mutant assessed as inhibition of cell growth measured after 72 hrs by Cell titer glo method. The class given is functional, cell-based. The settings on record: PK-59, 72 h.
Series [12] can be described thus: Inhibition of ERK phosphorylation in human ASPC1 cells harbouring KRAS G12D mutant measured after 24 hrs. The class given is cell-based. The settings on record: ASPC1, 24 h.
A short description of series [13]: Toxicity in female Balb/c nude mouse xenografted with human PK-59 cells assessed as change in body weight at 1.8 mg/kg, iv QW measured after 28 days. The class given is organism-based. The settings on record: in vivo, 672 h, time 28 day.
Series [14] can be described thus: Inhibition of ERK phosphorylation in human GP2d cells harbouring KRAS G12D mutant measured after 24 hrs. The class given is cell-based.
A further series deals with ASPC1. Put plainly: Antiproliferative activity against human ASPC1 cells harbouring KRAS G12D mutant assessed as inhibition of cell growth measured after 72 hrs by Cell titer glo method. The class given is functional, cell-based. The settings on record: ASPC1, 72 h.
Series [15] in a line: Inhibition of ERK phosphorylation in human AGS cells harbouring KRAS G12D mutant measured after 24 hrs. The class given is cell-based.
The target in a further series is GTPase KRas (Homo sapiens, UniProt P01116, G12D). Put plainly: Binding affinity to 6 His-tagged GDP-loaded human KRAS G12D mutant assessed as GDP-GTP exchange preincubated for 30 mins followed by GTP addition for 30 mins by HTRF method.
Sequence of GTPase KRas (P01116 whole entry G12D): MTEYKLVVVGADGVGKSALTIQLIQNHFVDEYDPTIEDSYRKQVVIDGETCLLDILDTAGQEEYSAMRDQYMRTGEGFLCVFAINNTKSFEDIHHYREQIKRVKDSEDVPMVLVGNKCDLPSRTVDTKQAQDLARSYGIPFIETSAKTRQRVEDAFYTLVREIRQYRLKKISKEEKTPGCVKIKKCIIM
The test system of another series is GP2d. The series can be described thus: PROTAC activity at CRBN/KRAS G12D mutant in human GP2d cells assessed as induction of KRAS G12D mutant degradation at 0.004 to 250 nM measured after 24 hrs by immunoblot analysis. The class given is cell-based. The note with it: dose 0.004-250 nM.

Sequence of Protein cereblon/GTPase KRas (Homo sapiens), P01116+Q96SW2 [G12D] (P01116 whole entry G12D): as above
Sequence of Protein cereblon/GTPase KRas (Homo sapiens), P01116+Q96SW2 [G12D] (Q96SW2 whole entry partner): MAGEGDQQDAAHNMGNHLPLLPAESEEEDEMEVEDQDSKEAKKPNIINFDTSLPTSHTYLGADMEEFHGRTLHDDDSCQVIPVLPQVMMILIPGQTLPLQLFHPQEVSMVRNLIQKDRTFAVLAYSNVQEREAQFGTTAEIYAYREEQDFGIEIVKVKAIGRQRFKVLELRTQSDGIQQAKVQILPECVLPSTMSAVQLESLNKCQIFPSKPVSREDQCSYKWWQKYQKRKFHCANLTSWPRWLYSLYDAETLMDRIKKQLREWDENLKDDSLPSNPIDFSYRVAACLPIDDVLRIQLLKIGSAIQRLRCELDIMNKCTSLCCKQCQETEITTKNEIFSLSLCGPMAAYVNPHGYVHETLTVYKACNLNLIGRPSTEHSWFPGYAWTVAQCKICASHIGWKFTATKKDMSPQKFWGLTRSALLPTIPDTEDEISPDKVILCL

Take `C#Cc1c(F)ccc2cc(O)cc(-c3ncc4c(N5CC6CCC(C5)N6)nc(OCC5(CN6CCC7(CC6)CC(N6CCN(c8ccc(N9CCC(=O)NC9=O)cc8)CC6)C7)CC5)nc4c3F)c12`: the values for the Activity in series [1] and in [2] were 2% and 6%, respectively.

`C#Cc1c(F)ccc2cc(O)cc(-c3ncc4c(N5CC6CCC(C5)N6)nc(OCCCN5CCN(CC(=O)N6CCN(c7cccc8c7C(=O)N(C7CCC(=O)NC7=O)C8=O)CC6)CC5)nc4c3F)c12` (stereo not given): the Activity in series [3] was found to be 7%; in series [4] it was 7%; in series [1], 2%; in series [5], 0%.

`C#Cc1c(F)ccc2cc(O)cc(-c3ncc4c(N5CC6CCC(C5)N6)nc(OCC5(CN6CCN(C(=O)CN7CCN(c8ccc9c(c8)C(=O)N(C8CCC(=O)NC8=O)C9=O)CC7)CC6)CC5)nc4c3F)c12` (stereo not given): the Activity in series [5] was 40%.

Turning to `C#Cc1c(F)ccc2cc(O)cc(-c3ncc4c(N5CC6CCC(C5)N6)nc(OCC5(CN6CCC7(CC6)CCN(c6ccc8c(c6)C(=O)N(C6CCC(=O)NC6=O)C8=O)CC7)CC5)nc4c3F)c12` (stereo not given), the Activity in series [1] was determined as 57%; in series [6], 32%.

Regarding `C#Cc1c(F)ccc2cc(O)cc(-c3ncc4c(N5CC6CCC(C5)N6)nc(OC[C@@]56CCCN5C[C@H](F)C6)nc4c3F)c12` [MRTX-1133], the concentration for half-maximal inhibition (IC50) stood at 2.43 nM in the series with AGS; 1.43 nM in series [7]; 4.2 nM in [8]; 0.91 nM in series [10]; 2.9 nM in series [11]; 20.3 nM in [12]. Further, the concentration for half-maximal inhibition (IC50) turned out to be 0.87 nM in [14], 56.8 nM in the series with ASPC1 and 24.7 nM in series [15]. Moreover, the inhibition in vivo at 1.81 mg/kg in [9] turned out to be 58.7%. Besides, in series [13], the Activity result is “Non-toxic”.

As for `C#Cc1c(F)ccc2cc(O)cc(-c3ncc4c(N5CC6CCC(C5)N6)nc(OCC5(CN6CCC7(CC6)CC(N6CCN(c8ccc(NC9%10CC(C9)C(=O)NC%10=O)cc8F)CC6)C7)CC5)nc4c3F)c12`, the Activity in series [1] was determined as 67%; in series [2] it was 68%.

For the molecule `C#Cc1c(F)ccc2cc(O)cc(-c3ncc4c(N5CC6CCC(C5)N6)nc(OCC5(CN6CCC7(CC6)CC(N6CCC(c8cccc9c8C(=O)N(C8CCC(=O)NC8=O)C9=O)CC6)C7)CC5)nc4c3F)c12` (stereo not given), the Activity in series [1] is -12%; in [2] it was -3%.

For `C#Cc1c(F)ccc2cc(O)cc(-c3ncc4c(N5CC6CCC(C5)N6)nc(OCC5(CN6CCC7(CC6)CC(N6CCC(c8ccc9c(c8)C(=O)N(C8CCC(=O)NC8=O)C9=O)CC6)C7)CC5)nc4c3F)c12` (stereo not given), the Activity is 59% in series [1] and 37% in series [2].

As to `C#Cc1c(F)ccc2cc(O)cc(-c3ncc4c(N5CC6CCC(C5)N6)nc(OCC5(CN6CCC7(CC6)CC(N6CCN(c8ccc9c(c8)C(=O)N(C8CCC(=O)NC8=O)C9=O)CC6)C7)CC5)nc4c3F)c12` (stereo not given), the Activity in [1] stood at 64%; in series [2] it was 48%.

For `C#Cc1c(F)ccc2cc(O)cc(-c3ncc4c(N5CC6CCC(C5)N6)nc(OCC5(CN6CCC7(CC6)CC(N6CCN(c8cc9c(cc8F)c(N8CCC(=O)N(C)C8=O)nn9C)CC6)C7)CC5)nc4c3F)c12`, the IC50 at GTPase KRas was 4.02 nM. Besides, the outcome in the series on GP2d was inactive.

As for `C#Cc1c(F)ccc2cc(O)cc(-c3ncc4c(N5CC6CCC(C5)N6)nc(OCC5(CN6CCN(c7ccc8c(c7)C(=O)N(C7CCC(=O)NC7=O)C8=O)CC6)CC5)nc4c3F)c12` (stereo not given), the Activity in series [5] came to 58%.

For `C#Cc1c(F)ccc2cc(O)cc(-c3ncc4c(N5CC6CCC(C5)N6)nc(OCC5(CN6CCC7(CC6)CC(N6CCC(c8ccc(NC9CCC(=O)NC9=O)cc8F)CC6)C7)CC5)nc4c3F)c12` (stereo not given), the Activity turned out to be 79% in [1] and 84% in [2].

On to `C#Cc1c(F)ccc2cc(O)cc(-c3ncc4c(N5CC6CCC(C5)N6)nc(OCC5(CN6CCC7(CC6)CC(N6CCN(c8cccc9c8C(=O)N(C8CCC(=O)NC8=O)C9=O)CC6)C7)CC5)nc4c3F)c12` (stereo not given), for which the Activity in series [1] turned out to be 34%; in series [2] it was 21%.

Turning to `C#Cc1c(F)ccc2cc(O)cc(-c3ncc4c(N5CC6CCC(C5)N6)nc(OCCCN5CCN(C(=O)CN6CCN(c7ccc8c(c7)C(=O)N(C7CCC(=O)NC7=O)C8=O)CC6)CC5)nc4c3F)c12` (stereo not given), the Activity in series [3] turned out to be 21%; in series [4], 23%; in series [1] it was 9%; in series [5], 10%.

On to `C#Cc1c(F)ccc2cc(O)cc(-c3ncc4c(N5CC6CCC(C5)N6)nc(OCC5(CN6CCC7(CC6)CC(N6CCC(c8ccc(C9CCC(=O)NC9=O)cc8)CC6)C7)CC5)nc4c3F)c12` (stereo not given), for which the figures for the Activity in series [1] and in series [2] were 81% and 32%, respectively.

Turning to `C#Cc1c(F)ccc2cc(O)cc(-c3ncc4c(N5CC6CCC(C5)N6)nc(OCC5(CN6CCC7(CC6)CC(N6CCC(c8cccc(C9CCC(=O)NC9=O)c8)CC6)C7)CC5)nc4c3F)c12` (stereo not given), the Activity in series [1] was -20%; in series [2], -8%.

With `C#Cc1c(F)ccc2cc(O)cc(-c3ncc4c(N5CC6CCC(C5)N6)nc(OCC5(CN6CCC7(CC6)CC(N6CCN(c8ccc(NC9CCC(=O)NC9=O)cc8F)CC6)C7)CC5)nc4c3F)c12` (stereo not given), the Activity came out at 64% in series [1] and 54% in series [2].

On to `C#Cc1c(F)ccc2cc(O)cc(-c3ncc4c(N5CC6CCC(C5)N6)nc(OCCCN5CCN(C(=O)CN6CCN(c7cccc8c7C(=O)N(C7CCC(=O)NC7=O)C8=O)CC6)CC5)nc4c3F)c12` (stereo not given), for which the Activity in [3] was found to be 0%; in series [4] it was 7%; in series [1], 12%; in series [5], 8%.

Take `C#Cc1c(F)ccc2cc(O)cc(-c3ncc4c(N5CC6CCC(C5)N6)nc(OCC5(CN6CCC7(CC6)CC(N6CCC(c8cccc(N9CCC(=O)NC9=O)c8)CC6)C7)CC5)nc4c3F)c12`: the Activity is -10% in series [1] and 0% in [2].

On to `C#Cc1c(F)ccc2cc(O)cc(-c3ncc4c(N5CC6CCC(C5)N6)nc(OCCCN5CCN(CC(=O)N6CCN(c7ccc8c(c7)C(=O)N(C7CCC(=O)NC7=O)C8=O)CC6)CC5)nc4c3F)c12` (stereo not given), for which the Activity in [3] is 4%; in [4], 9%; in [1], 1%; in [5] it was -1%.
